{"source": "PubChem BioAssay AID2253", "about": "(Southern Research Specialized Biocontainment Screening …, 2010)"}
{"test_system": "THP-1 viability, CellTiter-Glo luminescence, 72 h", "assay": "THP-1 cell cytotoxicity, dose response, cytotoxicity control for Salmonella PhoP regulon inhibitors, S. typhimurium screen hits (AID 2253)", "units": {"EC50": "µM"}}
{"compound": "O=C(c1ccc(F)cc1)C(CN1CCOCC1)c1ccccc1", "note": "(centres undefined)", "EC50": 6.92}
{"compound": "O=C(Cn1nc(CNc2ccc(Cl)cc2)[n+]2c1CCCCC2)c1ccc(Br)cc1", "EC50": 11.6}
{"compound": "Clc1ccc(OCCN2CCN(c3ncnc4sccc34)CC2)cc1", "EC50": "< 0.1"}
{"compound": "CCOC(=O)C1=Nc2ccccc2C1=[N+]=[N-]", "EC50": 27.2}
{"compound": "COc1cc(NC(=O)Nc2cccc(Cl)c2)c(OC)cc1NC(=O)CN1CCCCC1", "EC50": 15.5}
{"compound": "O=C(Nc1nc(-c2ccncc2)cs1)C1c2ccccc2Oc2ccccc21", "EC50": 16.9}
{"compound": "CCOC(=S)SCC(=O)Nc1nc(-c2ccccc2)cs1", "EC50": 4.91}
{"compound": "C#CCOCCOCCOCCNc1nc(N2CCN(C(=O)CCCCCCCCCCNC(=O)[C@H](CCCN=C(N)N)n3cc(C[C@@H](C)CC)nn3)CC2)nc(N2CCN(C(=O)CCCCCCCCCCNC(=O)[C@@H]([C@H](C)CC)n3cc(CCCCCN)nn3)CC2)n1", "EC50": 5.33}
{"compound": "N=c1n(Cc2ccc(Cl)cc2)c2ccccc2n1CC(O)c1ccco1", "note": "(centres undefined)", "EC50": 11.8}
{"compound": "Nc1nonc1C(=O)N/N=C/c1cc(Br)ccc1O", "EC50": 3.12}
{"compound": "CCCC(=O)NC(c1ccc(C)cc1)c1ccc2cccnc2c1O", "note": "(centres undefined)", "EC50": 0.46}
{"compound": "Cc1ccc(C(c2cc(Cl)c3cccnc3c2O)N2CCN(C)CC2)cc1", "note": "(centres undefined)", "EC50": 1.89}
{"compound": "CCCCCCC(=O)N(O)C1CC(=O)N(c2ccc(C)cc2)C1=O", "note": "(centres undefined)", "EC50": 30.6}
{"compound": "COC(=O)c1c(C)oc2ccc(NS(=O)(=O)c3cccs3)cc12", "EC50": 48.4}
{"compound": "CCN1/C(=C/C=C/c2sc3ccccc3[n+]2CC)Sc2ccccc21", "EC50": 0.43}
{"compound": "Clc1ccc(Cl)c(OCCCCNCc2ccccc2)c1", "EC50": 27.4}
{"compound": "CCCCCN=C(N)N/N=C/c1c[nH]c2ccc(OC)cc12", "EC50": 1.58}
{"compound": "COc1ccc(Nc2sc(C(=O)Nc3cccc(Cl)c3)c(N)c2C(=O)Nc2ccccc2OC)cc1", "EC50": 25.7}
{"compound": "CN(C)C=NC(=O)c1[nH]c2ccc(Cl)cc2c1-c1ccccc1", "EC50": 13.6}
{"compound": "O=C1c2[nH]nc(-c3ccccc3O)c2C(c2ccc(F)cc2)N1Cc1ccco1", "note": "(centres undefined)", "EC50": 20}
{"compound": "C[CH2][Hg][S]c1ccccc1C(=O)O", "EC50": 0.71}
{"compound": "COc1ccc(O)c(/C=c2/sc3nc4cc(C)c(C)cc4n3c2=O)c1", "EC50": 34.1}
{"compound": "Cc1ccnc(NC(c2cccnc2)c2ccc3cccnc3c2O)c1", "note": "(centres undefined)", "EC50": 12}
{"compound": "CC(=O)NC(c1ccc2ccccc2c1)c1ccc2cccnc2c1O", "note": "(centres undefined)", "EC50": 0.24}
{"compound": "Cc1cccc(Nc2nc(NCc3ccco3)c3ccccc3n2)c1", "EC50": 5.29}
{"compound": "CCOC(=O)C[n+]1c(C)sc2ccc(OC)cc21", "EC50": 25.8}
{"compound": "N=C(N)SCc1cn(-c2ccccc2)nc1-c1ccc(Br)cc1", "EC50": 4.83}
{"compound": "NC1=NC(=Nc2ccc(Cl)cc2)c2ccccc21", "EC50": 22.4}
{"compound": "Cc1ccc(C(=O)CSC2=C(C#N)C(c3ccco3)CC(=O)N2)c(C)c1", "note": "(centres undefined)", "EC50": 33.7}
{"compound": "CC(=O)NC(c1ccc(C)cc1)c1cc([N+](=O)[O-])c2cccnc2c1O", "note": "(centres undefined)", "EC50": 6.41}
{"compound": "Cc1ccc(-c2csc(NC(=O)C[n+]3cc(-c4ccc(C)cc4)n4c3CCC4)n2)cc1", "EC50": 8.54}
{"compound": "Nc1ncn(C2O[C@H](CO)[C@@H](O)[C@H]2O)c(=O)n1", "note": "(some centres undefined)", "EC50": 10.8}
{"compound": "CN(c1cccc(Cl)c1)S(=O)(=O)c1cccc(C(=O)Nc2nc3ccccc3[nH]2)c1", "EC50": 13.3}
{"compound": "N=c1n(CCO)c2ccccc2n1Cc1ccc(Cl)cc1", "EC50": 41.1}
{"compound": "CC[n+]1c(/C=C/N(C)c2ccccc2)n(-c2ccccc2)c2ccc(-c3nc4ccccc4s3)cc21", "EC50": 0.46}
{"compound": "CNc1cc(Cl)c2nonc2c1[N+](=O)[O-]", "EC50": 3.65}
{"compound": "COc1ccc(C(=O)Oc2c(CN3CCOCC3)cc(Cl)c3cccnc23)cc1", "EC50": 6.67}
{"compound": "Cc1cc(C2=NNC(=NC3CC3)SC2)c(C)n1Cc1ccco1", "EC50": 5.69}
{"compound": "c1ccc(CN2CCN(c3nc(NCc4ccco4)c4ccccc4n3)CC2)cc1", "EC50": 20.6}
{"compound": "Cc1ccccc1Cn1c(=N)n(CC(=O)c2ccco2)c2ccccc21", "EC50": 22.8}
{"compound": "FC(F)(F)c1ccc2c(c1)N(CCCN1CCN(CCCl)CC1)c1ccccc1S2", "EC50": 20.6}
{"compound": "Oc1cccc(/C=N/NC(=S)Nc2cccnc2)c1O", "EC50": 4.11}
{"compound": "Cc1ccc(Nc2nc(Cl)nc(N(C)C#N)n2)cc1", "EC50": 13.6}
{"compound": "COc1cc(/C=C/[N+](=O)[O-])ccc1O", "EC50": 12.6}
{"compound": "C#CC(=O)N(c1cc(OC)ccc1OC)C(C(=O)NC1CCCC1)c1cccs1", "note": "(centres undefined)", "EC50": 1.42}
{"compound": "CCOc1ccc(/C=C/C(=O)Nc2ccc(OC)cc2[N+](=O)[O-])cc1", "EC50": 27.5}
{"compound": "Cn1c(NCc2cc(Br)ccc2O)nc2ccccc21", "EC50": 37.5}
{"compound": "Nc1ccc(N(c2ccccc2)c2ccc(N)cc2)cc1", "EC50": 4.85}
{"compound": "Cc1cc(C)c2ccc(N)nc2c1O", "EC50": 2.91}
{"compound": "COC12C(COC(N)=O)C3=C(C(=O)C(C)=C(N)C3=O)N1CC1C2N1C", "note": "(centres undefined)", "EC50": 9.05}
{"compound": "CCn1c(N)[n+](CC(=O)Nc2ccc(SC(F)F)cc2)c2ccccc21", "EC50": 13.3}
{"compound": "N=c1c2c(n(Cc3ccc(Br)cc3)c3c1CCC3)CCCC2", "EC50": 3.88}
{"compound": "CCn1c(SCc2nc3scc(-c4ccccc4)c3c(=O)[nH]2)nnc1-c1cccs1", "EC50": 46.6}
{"compound": "Cc1cc(C(=O)N/N=C/c2cc(Br)cc([N+](=O)[O-])c2O)c2ccccc2n1", "EC50": 23}
{"compound": "c1ccc(CNc2c3c(nc4ccccc24)CCC3)cc1", "EC50": 11.3}
{"compound": "Cc1ccc(C(=O)Sc2cccccc2=O)cc1", "EC50": 2.64}
{"compound": "Cc1ccc(Nc2cc(C)c3ccc(O)cc3n2)cc1C", "EC50": 17}
{"compound": "Cc1cc2cc(CCNC(=O)c3cccs3)c(=O)[nH]c2cc1C", "EC50": 17.2}
{"compound": "CCN1/C(=C/C(C)=C/c2sc3ccccc3[n+]2CC)Sc2ccccc21", "EC50": 13.6}
